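Growth conditions: 96-well plates. Treatment: test compound, 48 hours, 5 concentrations. Analysis: linear interpolation between bracketing concentrations; unreached endpoints set to highest concentration. At the TGI there is no net growth.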 Some results are limits rather than exact numbers.

As a reminder, the TGI is the concentration giving total growth inhibition. A high value points to lower sensitivity of the cells.

One experiment has as its system 786-0 renal. In words: DTP human tumour cell line panel, 48 h.
For `Fc1ccc(C(=C2CCN(CCc3ccc4[nH]c(=S)[nH]c4c3)CC2)c2ccc(F)cc2)cc1`, the TGI stood at 3.61 µM.

`S=c1[nH]c(=S)c2nnn(-c3ccccc3)c2[nH]1` showed a TGI above 100 µM.

On to `CC(C)CC(NC(=O)C(CI)Cc1ccccc1)C(=O)Nc1ccccc1` (configuration not stated), for which the TGI is above 100 µM.

Consider `Cc1cc(C2CC(O)C(CO)O2)c(F)cc1F` (configuration not stated), for which the TGI is above 100 µM.

The compound `CC(=O)O[C@H]1CC[C@@]2(C)C(=CC[C@@H]3[C@@H]2CC[C@]2(C)NC(=O)/C(=C\c4ccccc4)C[C@@H]32)C1` gave a TGI of 41.4 µM.

`N#CC1=C(Nc2ccccc2)SC=C(c2ccccc2)NC1=NCc1ccccc1` came in with a TGI above 100 µM.

For the compound `CNS(=O)(=O)NNS(=O)(=O)c1ccc(Br)cc1`, the TGI is above 100 µM.

The compound `CC(=O)O[C@H]1CCC2[C@@H]3CCC4Nc5oncc5C[C@]4(C)C3CC[C@@]21C` (some centres not stated) displayed a TGI above 10 µM.

As to `Cc1ccc(NC(=O)CSc2nnc(-c3ccc(N=Cc4ccc(Cl)cc4)cc3)o2)cc1`, the TGI was above 100 µM.

As to `COC1=CC2C(c3cc4ccccc4n3S(=O)(=O)c3ccccc3)CC1CN2C(=O)OCc1ccccc1` (configuration not stated), the TGI was above 100 µM.

Regarding `Cc1c(O)c(OC2OC(CO)C(O)C(O)C2O)cc2c1CC[C@@H]1C2(C)C(=O)C[C@]2(C)[C@@H]([C@@](C)(O)C(=O)CCC(C)(C)O)[C@H](O)C[C@@]12C` (some centres not stated), the TGI was above 100 µM.

In turn, `CCC1CCc2c(c(=O)oc3c2cc(OC)c2cccc(OC)c23)C1` (configuration not stated) returned a TGI above 100 µM.

`Cn1c(=O)oc2cc(C(O)CN3CCN(Cc4ccccn4)CC3)c(Cl)cc21` (configuration not stated): the TGI was above 100 µM.

The compound `COC(=O)[C@H](Cc1c[nH]c2ccccc12)NC(=O)c1ccc(CNC(=O)/C(C)=C/c2ccccc2)cc1` returned a TGI above 100 µM.

`C/C(=N/NC(=S)Nc1ccc(Cl)cc1)c1cccc(/C(C)=N\NC(=S)Nc2ccc(Cl)cc2)n1` yielded a TGI of 21 µM.

Compound `O=C(O/C=C\OC1CCCC1(c1ccccc1)c1ccccc1)c1ccccc1` (configuration not stated) yielded a TGI of 14 µM.

A further experiment has as its system A498 renal. The experiment can be described thus: DTP human tumour cell line panel, 48 h.
Compound `Fc1ccc(C(=C2CCN(CCc3ccc4[nH]c(=S)[nH]c4c3)CC2)c2ccc(F)cc2)cc1` displayed a TGI of 25 µM.

`CC(C)CC(NC(=O)C(CI)Cc1ccccc1)C(=O)Nc1ccccc1` (configuration not stated) yielded a TGI above 100 µM.

`Cc1cc(C2CC(O)C(CO)O2)c(F)cc1F` (configuration not stated): the TGI is above 100 µM.

In turn, `CC(=O)O[C@H]1CC[C@@]2(C)C(=CC[C@@H]3[C@@H]2CC[C@]2(C)NC(=O)/C(=C\c4ccccc4)C[C@@H]32)C1` came in with a TGI of 27.6 µM.

In turn, `N#CC1=C(Nc2ccccc2)SC=C(c2ccccc2)NC1=NCc1ccccc1` showed a TGI above 100 µM.

For `CNS(=O)(=O)NNS(=O)(=O)c1ccc(Br)cc1`, the TGI was above 100 µM.

`CC(=O)O[C@H]1CCC2[C@@H]3CCC4Nc5oncc5C[C@]4(C)C3CC[C@@]21C` (some centres not stated) displayed a TGI above 10 µM.

Take `Cc1c(O)c(OC2OC(CO)C(O)C(O)C2O)cc2c1CC[C@@H]1C2(C)C(=O)C[C@]2(C)[C@@H]([C@@](C)(O)C(=O)CCC(C)(C)O)[C@H](O)C[C@@]12C` (some centres not stated): the TGI was above 100 µM.

In turn, `CCC1CCc2c(c(=O)oc3c2cc(OC)c2cccc(OC)c23)C1` (configuration not stated) showed a TGI above 100 µM.

In turn, `Cn1c(=O)oc2cc(C(O)CN3CCN(Cc4ccccn4)CC3)c(Cl)cc21` (configuration not stated) gave a TGI above 100 µM.

On to `COC(=O)[C@H](Cc1c[nH]c2ccccc12)NC(=O)c1ccc(CNC(=O)/C(C)=C/c2ccccc2)cc1`, for which the concentration for total growth inhibition (TGI) was found to be 64.2 µM.

`C/C(=N/NC(=S)Nc1ccc(Cl)cc1)c1cccc(/C(C)=N\NC(=S)Nc2ccc(Cl)cc2)n1` yielded a TGI of 79.5 µM.

Compound `O=C(O/C=C\OC1CCCC1(c1ccccc1)c1ccccc1)c1ccccc1` (configuration not stated) yielded a concentration for total growth inhibition (TGI) of 64.3 µM.

For the next experiment, the system named is EKVX NSCLC. In words: DTP human tumour cell line panel, 48 h.
The compound `Fc1ccc(C(=C2CCN(CCc3ccc4[nH]c(=S)[nH]c4c3)CC2)c2ccc(F)cc2)cc1` registered a TGI of 9.04 µM.

The compound `S=c1[nH]c(=S)c2nnn(-c3ccccc3)c2[nH]1` yielded a TGI above 100 µM.

The compound `CC(C)CC(NC(=O)C(CI)Cc1ccccc1)C(=O)Nc1ccccc1` (configuration not stated) returned a TGI above 100 µM.

As for `Cc1cc(C2CC(O)C(CO)O2)c(F)cc1F` (configuration not stated), the TGI was above 100 µM.

As for `CC(=O)O[C@H]1CC[C@@]2(C)C(=CC[C@@H]3[C@@H]2CC[C@]2(C)NC(=O)/C(=C\c4ccccc4)C[C@@H]32)C1`, the TGI came out at 34.8 µM.

In turn, `CNS(=O)(=O)NNS(=O)(=O)c1ccc(Br)cc1` registered a TGI above 100 µM.

For the compound `Cc1ccc(NC(=O)CSc2nnc(-c3ccc(N=Cc4ccc(Cl)cc4)cc3)o2)cc1`, the TGI was above 100 µM.

Consider `COC1=CC2C(c3cc4ccccc4n3S(=O)(=O)c3ccccc3)CC1CN2C(=O)OCc1ccccc1` (configuration not stated), for which the TGI was found to be 82.2 µM.

`Cc1c(O)c(OC2OC(CO)C(O)C(O)C2O)cc2c1CC[C@@H]1C2(C)C(=O)C[C@]2(C)[C@@H]([C@@](C)(O)C(=O)CCC(C)(C)O)[C@H](O)C[C@@]12C` (some centres not stated) displayed a TGI above 100 µM.

`CCC1CCc2c(c(=O)oc3c2cc(OC)c2cccc(OC)c23)C1` (configuration not stated) displayed a TGI above 100 µM.

`Cn1c(=O)oc2cc(C(O)CN3CCN(Cc4ccccn4)CC3)c(Cl)cc21` (configuration not stated) registered a TGI above 100 µM.

Compound `COC(=O)[C@H](Cc1c[nH]c2ccccc12)NC(=O)c1ccc(CNC(=O)/C(C)=C/c2ccccc2)cc1` returned a TGI above 100 µM.

Take `C/C(=N/NC(=S)Nc1ccc(Cl)cc1)c1cccc(/C(C)=N\NC(=S)Nc2ccc(Cl)cc2)n1`: the TGI is above 100 µM.

Consider `O=C(O/C=C\OC1CCCC1(c1ccccc1)c1ccccc1)c1ccccc1` (configuration not stated), for which the TGI was 34.8 µM.

In the next experiment the test system is HOP-62 NSCLC. In words: DTP human tumour cell line panel, 48 h.
For `Fc1ccc(C(=C2CCN(CCc3ccc4[nH]c(=S)[nH]c4c3)CC2)c2ccc(F)cc2)cc1`, the TGI turned out to be 38.6 µM.

`S=c1[nH]c(=S)c2nnn(-c3ccccc3)c2[nH]1` returned a TGI above 100 µM.

For `Cc1cc(C2CC(O)C(CO)O2)c(F)cc1F` (configuration not stated), the TGI is above 100 µM.

Turning to `CC(=O)O[C@H]1CC[C@@]2(C)C(=CC[C@@H]3[C@@H]2CC[C@]2(C)NC(=O)/C(=C\c4ccccc4)C[C@@H]32)C1`, the TGI stood at 30.1 µM.

Compound `N#CC1=C(Nc2ccccc2)SC=C(c2ccccc2)NC1=NCc1ccccc1` showed a TGI above 100 µM.

Compound `CNS(=O)(=O)NNS(=O)(=O)c1ccc(Br)cc1` came in with a TGI above 100 µM.

`CC(=O)O[C@H]1CCC2[C@@H]3CCC4Nc5oncc5C[C@]4(C)C3CC[C@@]21C` (some centres not stated) returned a TGI above 10 µM.

The compound `Cc1ccc(NC(=O)CSc2nnc(-c3ccc(N=Cc4ccc(Cl)cc4)cc3)o2)cc1` had a TGI above 100 µM.

The compound `COC1=CC2C(c3cc4ccccc4n3S(=O)(=O)c3ccccc3)CC1CN2C(=O)OCc1ccccc1` (configuration not stated) registered a TGI above 100 µM.

Regarding `Cc1c(O)c(OC2OC(CO)C(O)C(O)C2O)cc2c1CC[C@@H]1C2(C)C(=O)C[C@]2(C)[C@@H]([C@@](C)(O)C(=O)CCC(C)(C)O)[C@H](O)C[C@@]12C` (some centres not stated), the TGI was above 100 µM.

Take `CCC1CCc2c(c(=O)oc3c2cc(OC)c2cccc(OC)c23)C1` (configuration not stated): the total growth inhibition concentration (TGI) is above 100 µM.

In turn, `Cn1c(=O)oc2cc(C(O)CN3CCN(Cc4ccccn4)CC3)c(Cl)cc21` (configuration not stated) registered a concentration for total growth inhibition (TGI) above 100 µM.

`COC(=O)[C@H](Cc1c[nH]c2ccccc12)NC(=O)c1ccc(CNC(=O)/C(C)=C/c2ccccc2)cc1` yielded a TGI above 100 µM.

Consider `C/C(=N/NC(=S)Nc1ccc(Cl)cc1)c1cccc(/C(C)=N\NC(=S)Nc2ccc(Cl)cc2)n1`, for which the TGI came out at 45 µM.

Compound `O=C(O/C=C\OC1CCCC1(c1ccccc1)c1ccccc1)c1ccccc1` (configuration not stated) returned a TGI of 36.9 µM.

The subject of a further experiment is HOP-92 NSCLC. The experiment can be described thus: DTP human tumour cell line panel, 48 h.
`Fc1ccc(C(=C2CCN(CCc3ccc4[nH]c(=S)[nH]c4c3)CC2)c2ccc(F)cc2)cc1` showed a TGI of 8.51 µM.

`S=c1[nH]c(=S)c2nnn(-c3ccccc3)c2[nH]1` had a TGI above 100 µM.

`CC(C)CC(NC(=O)C(CI)Cc1ccccc1)C(=O)Nc1ccccc1` (configuration not stated) showed a TGI above 100 µM.

`Cc1cc(C2CC(O)C(CO)O2)c(F)cc1F` (configuration not stated): the TGI is above 100 µM.

In turn, `CNS(=O)(=O)NNS(=O)(=O)c1ccc(Br)cc1` registered a TGI above 100 µM.

Regarding `CC(=O)O[C@H]1CCC2[C@@H]3CCC4Nc5oncc5C[C@]4(C)C3CC[C@@]21C` (some centres not stated), the TGI was above 10 µM.

Turning to `Cc1c(O)c(OC2OC(CO)C(O)C(O)C2O)cc2c1CC[C@@H]1C2(C)C(=O)C[C@]2(C)[C@@H]([C@@](C)(O)C(=O)CCC(C)(C)O)[C@H](O)C[C@@]12C` (some centres not stated), the TGI is above 100 µM.

In the case of `Cn1c(=O)oc2cc(C(O)CN3CCN(Cc4ccccn4)CC3)c(Cl)cc21` (configuration not stated), the TGI was above 100 µM.

`COC(=O)[C@H](Cc1c[nH]c2ccccc12)NC(=O)c1ccc(CNC(=O)/C(C)=C/c2ccccc2)cc1` showed a concentration for total growth inhibition (TGI) of 34.3 µM.
